Reference: patent publication US20060135569A1, “Use of benzisoselenazolone compounds against ischemic myocardial damage” (priority 2002, published 2006)
Marks after values point to notes of the source that are not given here.

Key:
[1] = test system: KM mice; assay: Acute toxicity study in mice; type: in vivo
Description: Acute toxicity studies were performed with IMM-004 and IMM-127 (synthesized by ourselves). The compound was provided as powder, which was milled and suspended in 0.5% carboxymethylcellulose sodium (CMC—Na) before use.
Male KM mice weighting 19±2 g were housed for an adaptation before use. Mice were randomly divided into groups, and each group consists of 10 animals. Mice were all fasted for 14 hrs before the administration of the tested compounds. Activity of mice in high dose group was reduced 30 min after the administration. 24 h after the administration, mice in each group were restored to normal. Mice were observed daily for a period of 7 days after the administration.

[2] = test system: TA97; assay: Ames test, strain TA97; type: cell-based
Description: (§1) To assess the mutagenic effects of 5 compounds (IMM-004; IMM-065; IMM-127; IMM-128; IMM-313), the Ames test was performed in 4 strains (TA97; TA98; TA100; TA102). The experiment was conducted with compounds at 4 concentration levels (0.5, 5, 50 and 500 μg/dish). […]

[3] = test system: TA98; assay: Ames test, strain TA98; type: cell-based
Description: as §1

[4] = target: T1, Na^+/Ca^2+ exchanger (Cavia porcellus, UniProt P48766); assay: Na^+/Ca^2+ exchange current (INa—Ca), whole-cell patch clamp, intracellular Na^+ overload cell model; type: cell-based, guinea pig
T1 construct: endogenous in cells; host or cells: freshly isolated guinea pig ventricular myocytes
Summary of the method: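 Whole-cell patch clamp on guinea pig ventricular myocytes, Na⁺-loaded via pipette dialysis; holding −40 mV, step to +60 mV, ramp down at 80 mV·s⁻¹ to −100 mV, 0.05 Hz. K⁺, L-type Ca²⁺ and Na⁺/K⁺-ATPase blocked; INa–Ca taken as 5 mmol·L⁻¹ Ni²⁺-sensitive current.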

[5] = test system: TA100; assay: Ames test, strain TA100; type: cell-based
Description: as §1

[6] = test system: TA97; TA98; TA100; TA102; assay: Ames (mutagenesis) test, overall result in 4 strains; type: cell-based; conditions: 0.5, 5, 50 and 500 μg/dish
Description: as §1

[7] = test system: TA102; assay: Ames test, strain TA102; type: cell-based
Description: as §1

[8] = Example 1 table, myocardial cell
[9] = screening of 22 candidate compounds

| Compound | TA97 +S9 ([2]; 0.5 μg/dish) | TA97 −S9 ([2]; 0.5 μg/dish) | TA97 +S9 ([2]; 5 μg/dish) | TA97 −S9 ([2]; 5 μg/dish) | TA97 +S9 ([2]; 50 μg/dish) | TA97 −S9 ([2]; 50 μg/dish) | TA97 +S9 ([2]; 500 μg/dish) | TA97 −S9 ([2]; 500 μg/dish) | TA98 +S9 ([3]; 0.5 μg/dish) | TA98 −S9 ([3]; 0.5 μg/dish) | TA98 +S9 ([3]; 5 μg/dish) | TA98 −S9 ([3]; 5 μg/dish) | TA98 +S9 ([3]; 50 μg/dish) | TA98 −S9 ([3]; 50 μg/dish) | TA98 +S9 ([3]; 500 μg/dish) | TA98 −S9 ([3]; 500 μg/dish) | Inhibitory rate of inward INa—Ca (%) [4, 8] [%] | Inhibitory rate of outward INa—Ca (%) [4, 8] [%] | Inhibitory rate of inward INa—Ca (%) [4, 9] [%] | Inhibitory rate of outward INa—Ca (%) [4, 9] | also measured |
| --- | --- | --- | --- | --- | --- | --- | --- | --- | --- | --- | --- | --- | --- | --- | --- | --- | --- | --- | --- | --- | --- |
| O=c1c2cc(Cl)ccc2[se]n1-c1ccccn1 [IMM-004, 5-chloro-2-(2-pyridyl)-1,2-benz-isoselenazol-3(2H)-one] | 55.33 ± 24.36 | 54.33 ± 4.78 | 80.67 ± 8.58 | 54.67 ± 4.99 | 204.67 ± 29.41 | 47.00 ± 5.72 | 67.33 ± 36.59 | 55.50 ± 3.50 | 70.67 ± 6.85 | 56.33 ± 1.25 | 48.33 ± 11.95 | 29.33 ± 0.94 | 60.67 ± 26.64 | 19.67 ± 3.29 | 55.33 ± 15.92 | 24.67 ± 4.71 | 44 | 52 | 44 | 52* % | mortality in the dose groups ([1]; all dose groups, mice): no mortality; TA100 +S9 ([5]; 0.5 μg/dish): 191.33 ± 44.25; TA100 −S9 ([5]; 0.5 μg/dish): 121.00 ± 8.52; TA100 +S9 ([5]; 5 μg/dish): 215.33 ± 23.68; TA100 −S9 ([5]; 5 μg/dish): 58.33 ± 29.39; TA100 +S9 ([5]; 50 μg/dish): 126.00 ± 31.79; TA100 −S9 ([5]; 50 μg/dish): 89.67 ± 14.70; TA100 +S9 ([5]; 500 μg/dish): 160.00 ± 21.33; TA100 −S9 ([5]; 500 μg/dish): 78.33 ± 13.52; mutagenic effect (Ames test) [6]: No evidence for a mutagenic effect; TA102 +S9 ([7]; 0.5 μg/dish): 328.67 ± 26.39; TA102 −S9 ([7]; 0.5 μg/dish): 164.67 ± 62.66; TA102 +S9 ([7]; 5 μg/dish): 250.67 ± 7.54; TA102 −S9 ([7]; 5 μg/dish): 218.67 ± 23.79; TA102 +S9 ([7]; 50 μg/dish): 297.33 ± 24.07; TA102 −S9 ([7]; 50 μg/dish): 52.67 ± 6.59; TA102 +S9 ([7]; 500 μg/dish): 284.00 ± 64.27; TA102 −S9 ([7]; 500 μg/dish): 16.00 ± 5.89 |
| O=c1c2cc(F)ccc2[se]n1-c1ccccn1 [IMM-127, 5-fluoro-2-(2-pyridyl)-1,2-benz-isoselenazol-3(2H)-one] | 60.67 ± 3.86 | 60.00 ± 8.16 | 59.67 ± 8.18 | 56.67 ± 13.27 | 68.50 ± 2.50 | 60.33 ± 3.77 | 48.00 ± 2.16 | 57.33 ± 6.94 | 73.67 ± 4.63 | 93.50 ± 10.50 | 53.00 ± 5.72 | 85.00 ± 5.00 | 42.33 ± 7.41 | 89.00 ± 10.61 | 42.67 ± 5.31 | 96.00 ± 4.90 | 21 | 43 | 21 | 43* % | Lethal cases ([1]; 5 g/kg, 10 mice per group, 7 days observation): 7; TA100 +S9 ([5]; 0.5 μg/dish): 95.00 ± 10.23; TA100 −S9 ([5]; 0.5 μg/dish): 83.00 ± 14.14; TA100 +S9 ([5]; 5 μg/dish): 102.67 ± 21.06; TA100 −S9 ([5]; 5 μg/dish): 62.00 ± 10.80; TA100 +S9 ([5]; 50 μg/dish): 100.00 ± 6.16; TA100 −S9 ([5]; 50 μg/dish): 67.67 ± 22.05; TA100 +S9 ([5]; 500 μg/dish): 100.67 ± 4.49; TA100 −S9 ([5]; 500 μg/dish): 72.33 ± 23.67; mutagenic effect (Ames test) [6]: No evidence for a mutagenic effect; TA102 +S9 ([7]; 0.5 μg/dish): 205.33 ± 17.98; TA102 −S9 ([7]; 0.5 μg/dish): 199.67 ± 17.13; TA102 +S9 ([7]; 5 μg/dish): 216.00 ± 21.42; TA102 −S9 ([7]; 5 μg/dish): 224.67 ± 16.34; TA102 +S9 ([7]; 50 μg/dish): 250.67 ± 15.43; TA102 −S9 ([7]; 50 μg/dish): 195.33 ± 35.22; TA102 +S9 ([7]; 500 μg/dish): 233.33 ± 16.11; TA102 −S9 ([7]; 500 μg/dish): 143.67 ± 19.01 |
